These results are taken from patent publication US10897903B2, “Method for controlling PPO resistant weeds” (BASF SE, priority 2016, dated 2021).

In this assay the test system is w.1 AMATA Amaranthus tamariscinus, common waterhemp, sensitive biotype. Description: Greenhouse experiment, weed control of w.1 (Example 3). In kind it is in vivo. As to conditions: for Weed control (%) w.1: greenhouse, sensitive biotype.

Each structure is given as a SMILES string.

As for `C#CCN1C(=O)C(F)(F)Oc2cc(F)c(-n3c(=O)n(C)c(=S)n(C)c3=O)cc21` [I.a.35], the “activity in words on sensitive weed w.1” value (summary of Example 3 table) is “very good activity”. Besides, the “Weed control (%) w.1” value (use rate 2 g/ha) was 99% and the “Weed control (%) w.1” value (use rate 4 g/ha) came out at 100%.
